Measurements from US8865741B2, “Aminoindane compounds and use thereof in treating pain” (Asana Biosciences, LLC, priority 2011, dated 2014).
Where two headings read alike, the source gives them in different places.

Key:
[1] = tested on: sodium channel in hTRPV1-N1E115 cells; assay: FLIPR membrane potential assay of sodium channel response in hTRPV1-N1E115 cells, with (47° C.) or without (25° C.) heat activation of hTRPV1; format: cell-based; settings: for hTRPV1-N1E Nav (% inhibition) 25° C., tested at 0.5 mM / hTRPV1-N1E Nav (% inhibition) 47° C., tested at 0.5 mM: 0.5 mM (stated in cell, column head 0.1 mM); for hTRPV1-N1E Nav (% inhibition) 47° C., tested at 0.5 mM / IC50: 47° C.; for IC50: read-out: hTRPV1-N1E IC50 (μM) 47° C.; for hTRPV1-N1E Nav 1 mM (% inhibition) 25° C. / hTRPV1-N1E Nav 0.1 mM (% inhibition) 25° C.: 25° C. (no heat activation of hTRPV1); for hTRPV1-N1E Nav 0.1 mM (% inhibition) 47° C. / hTRPV1-N1E Nav 1 mM (% inhibition) 47° C.: 47° C. (heat activation of hTRPV1)
Description: In one embodiment, a modified FLIPR® (Fluorometric Imaging Plate Reader) based assay system was developed which is capable of discriminating between non-specific versus hTRPV1-mediated entry of test compounds. Advantageously, the assay system utilizes heat activated opening of hTRPV1 channels followed by an assessment of internal sodium channel block. The assay allows a permanently charged compound to selectively enter through opened hTRPV1 channels and that compound's potency in inhibiting sodium channels from the cytoplasm side of the same cell can be assessed and quantified.
The assay is readily performed in multi-well assay plates into which cells in growth media are added and incubated under conditions which permit the formation of a confluent monolayer over a period of hours prior to the start of the assay. Conventional culture media and conditions may be utilized. Duplicate cell assay plates are prepared for each experiment.
The spent media from the cell seeded plates is removed on the day of the assay and replaced with Membrane potential Dye-Blue (Molecular Devices). The dye was prepared in assay buffer following manufacturer's instructions. The dye-loaded plate is incubated at room temperature (about 25° C.) for about 30 minutes in order to pre-load the cells with dye. Optionally, the cells may be loaded with the dye simultaneously with adding the test compounds.
The test compounds are diluted in the Assay Buffer and added to each well of a specific 384-well ‘compound plate’, which serves as a source plate for compound addition using the FLIPR® platform. The concentration of compounds in the compound-plate was adjusted to achieve the desired final concentration when added to the cells in the ‘cell-plate’. After completion of the dye incubation period, the dye loaded cell-plates and the compound source plates are inserted into the FLIPR® Tetra™ device with a 384 FLIPR® tip box (Molecular Devices, Inc.) according to manufacturer's instructions. The compounds are robotically added to the dye loaded cell-plates using software integral to the FLIPR® Tetra™ instrument.
Immediately following compound addition, hTRPV1 is activated, in one of the duplicate cell plates, by heating. Specifically, entire multi-well plate containing the compound-cells mixture is incubated at 47° C. for 10 minutes, after which they are returned to room temperature (about 25° C.) for a further 30 minutes. Heat activation of hTRPV1 was omitted from the replicate cell plate which was simply maintained at room temperature for the entire 40 minutes.
A membrane potential response is elicited in the dye- and compound-loaded cells by the addition of veratridine which is a known sodium channel ‘agonist’. As illustrated in an example herein, an agonist plate containing veratridine (Sigma) is prepared in advance and is inserted into suitable devices such as, e.g., the FLIPR® TETRA® device for a “2nd addition” as instructed by the manufacturer. The concentration of veratridine in the ‘agonist plate’ was adjusted to achieve a final concentration of 100 μM when added to the cells in the cell-plate. Final concentrations of veratridine greater or lesser than 100 μM may also be used but the signal measured by the FLIPR®^Tetra™ device or another suitable device may vary accordingly.
The exposure of the cells in the cell-plate to veratridine induces sodium channels in the cells to open and the resulting ion flux produces a membrane potential depolarization that is detected as a fluorescence signal by the FLIPR® ^Tetra™ Device. The activity of test compounds is determined by their ability to attenuate the veratridine-induced fluorescence signal, the most promising compounds are those that show an enhanced activity in the heat-activated cell plate over the non-heat-activated cell plate. […]

[2] = tested on: Male Sprague Dawley (SD) rats; assay: In vivo assay of mechanical nociception (rat pinch model, perisciatic injection); settings: for Average Time of Analgesia: test compound 0.5%, perisciatic
[3] = biological target: T1, human Nav1.5 sodium channel (Homo sapiens, UniProt Q14524); assay: Inhibition of sodium channel response in hNav1.5-HEK293 cells (FLIPR, veratridine); format: cell-based; settings: for IC50: average, read-out: HEK Nav 1.5 IC50 (μM) (AVG); for inhibition at 10 min, 0.5 mM / inhibition at 10 min, 1.5 mM: human, HEK-293 cells expressing human Nav1.5 (hNav1.5-HEK-293), pH 7.4; for inhibition at 10 min, 0.5 mM: read-out: HEK Nav 1.5 % inh. @ 0.5 mM; for inhibition at 10 min, 1.5 mM: read-out: HEK Nav 1.5 % inh. @ 1.5 mM
T1 construct: host or cells: HEK-293
Protocol: C. Method for Assessing the Extent of Inhibition of Sodium Channel Response with Compounds in hNav1.5-HEK293 Cells.
The following assay was used to assess the tendency of the test compounds to block the dominant cardiac sodium channel isoform. Nav1.5 sodium channels are known to be permeable to quaternary sodium channel blockers such as QX-314 and, thus, the assay was performed in the absence of a chemical TRPV1 agonist.
The hNav1.5-HEK-293 cells (CreaCell, France, a human embryonic kidney cell line expressing the human Nav1.5 sodium channel) were cultured in Growth medium (containing 1×DMEM (Gibco)+10% FBS (PAA Gold)+2% Glutamine 100 mM (Gibco)+1% penicillin 10,000 U/mL streptomycin 10,000 μg/mL (Invitrogen)+1.2 mg/mL Geneticin G418 (Invitrogen)) in […] cell bind flasks (Corning). The following steps were followed exactly as mentioned. The spent medium was discarded and the cells rinsed once with PBS-1×. Accutase® (1-2 mL; PAA) solution was added. The plate was placed on a 37° C. warming incubator 3-5 minutes. As soon as cells are detached, 37° C. complete medium (9 mL) was added. The cell suspension was drawn into a sterile pipette and cells homogenized gently to dissociate cell aggregates. The cells were counted using a hemocytometer with Blue Trypan and then centrifuged 5 minutes at 400 g. The cells can be amplified or maintained by seeding […] in a T75 flask (final volume: 15 mL). 8000 cells in 50 μL Growth medium was added to each well of 384-well, clear bottomed, sterile poly-D-lysine coated plates with lid (Greiner-bio one) inside the laminar air-flow. The plates were incubated at 37° C. and 5% CO2 in a CO2 incubator (Thermo) for 48 hours.
On the day of the assay, cells were washed with Assay buffer, which was prepared using the components and amounts in Table 4. The pH was adjusted to 7.4 with NaOH, volume made up to 500 mL with Milli-Q® water.
Assay Buffer was added to the cells and incubated at rt (25° C.) for 10 minutes. The compounds were diluted in assay buffer. The compounds were added and incubated at rt (25° C.) for 10 minutes. Red FMP Dye (MDC) was added to the cells and the plate was incubated at rt (25° C.) for 30 minutes. Veratridine stock (20 mM; Sigma) was prepared in DMSO; veratridine (final concentration of 30 μM) in assay buffer was added to each well of the cell seeded plates in the FLIPR® system and read taken for 10 minutes. Table 5 provides data illustrating the sodium channel activity of the test compounds in response to the presence or absence of heat stimulation in cells expressing hTRPV1. The compounds were tested for differential activity at 25° C. and 47° C. and at two test concentrations. Compounds showing the most promising profiles were further evaluated for IC50 in the 47° C. assay, examples are shown in Table 5.

[4] = lidocaine 2%, total injection 100 μL
[5] = lidocaine 0%, total injection 100 μL
[6] = lidocaine 0%, total injection 200 μL
[7] = lidocaine 2%, total injection 200 μL

T1 sequence (Q14524 whole entry): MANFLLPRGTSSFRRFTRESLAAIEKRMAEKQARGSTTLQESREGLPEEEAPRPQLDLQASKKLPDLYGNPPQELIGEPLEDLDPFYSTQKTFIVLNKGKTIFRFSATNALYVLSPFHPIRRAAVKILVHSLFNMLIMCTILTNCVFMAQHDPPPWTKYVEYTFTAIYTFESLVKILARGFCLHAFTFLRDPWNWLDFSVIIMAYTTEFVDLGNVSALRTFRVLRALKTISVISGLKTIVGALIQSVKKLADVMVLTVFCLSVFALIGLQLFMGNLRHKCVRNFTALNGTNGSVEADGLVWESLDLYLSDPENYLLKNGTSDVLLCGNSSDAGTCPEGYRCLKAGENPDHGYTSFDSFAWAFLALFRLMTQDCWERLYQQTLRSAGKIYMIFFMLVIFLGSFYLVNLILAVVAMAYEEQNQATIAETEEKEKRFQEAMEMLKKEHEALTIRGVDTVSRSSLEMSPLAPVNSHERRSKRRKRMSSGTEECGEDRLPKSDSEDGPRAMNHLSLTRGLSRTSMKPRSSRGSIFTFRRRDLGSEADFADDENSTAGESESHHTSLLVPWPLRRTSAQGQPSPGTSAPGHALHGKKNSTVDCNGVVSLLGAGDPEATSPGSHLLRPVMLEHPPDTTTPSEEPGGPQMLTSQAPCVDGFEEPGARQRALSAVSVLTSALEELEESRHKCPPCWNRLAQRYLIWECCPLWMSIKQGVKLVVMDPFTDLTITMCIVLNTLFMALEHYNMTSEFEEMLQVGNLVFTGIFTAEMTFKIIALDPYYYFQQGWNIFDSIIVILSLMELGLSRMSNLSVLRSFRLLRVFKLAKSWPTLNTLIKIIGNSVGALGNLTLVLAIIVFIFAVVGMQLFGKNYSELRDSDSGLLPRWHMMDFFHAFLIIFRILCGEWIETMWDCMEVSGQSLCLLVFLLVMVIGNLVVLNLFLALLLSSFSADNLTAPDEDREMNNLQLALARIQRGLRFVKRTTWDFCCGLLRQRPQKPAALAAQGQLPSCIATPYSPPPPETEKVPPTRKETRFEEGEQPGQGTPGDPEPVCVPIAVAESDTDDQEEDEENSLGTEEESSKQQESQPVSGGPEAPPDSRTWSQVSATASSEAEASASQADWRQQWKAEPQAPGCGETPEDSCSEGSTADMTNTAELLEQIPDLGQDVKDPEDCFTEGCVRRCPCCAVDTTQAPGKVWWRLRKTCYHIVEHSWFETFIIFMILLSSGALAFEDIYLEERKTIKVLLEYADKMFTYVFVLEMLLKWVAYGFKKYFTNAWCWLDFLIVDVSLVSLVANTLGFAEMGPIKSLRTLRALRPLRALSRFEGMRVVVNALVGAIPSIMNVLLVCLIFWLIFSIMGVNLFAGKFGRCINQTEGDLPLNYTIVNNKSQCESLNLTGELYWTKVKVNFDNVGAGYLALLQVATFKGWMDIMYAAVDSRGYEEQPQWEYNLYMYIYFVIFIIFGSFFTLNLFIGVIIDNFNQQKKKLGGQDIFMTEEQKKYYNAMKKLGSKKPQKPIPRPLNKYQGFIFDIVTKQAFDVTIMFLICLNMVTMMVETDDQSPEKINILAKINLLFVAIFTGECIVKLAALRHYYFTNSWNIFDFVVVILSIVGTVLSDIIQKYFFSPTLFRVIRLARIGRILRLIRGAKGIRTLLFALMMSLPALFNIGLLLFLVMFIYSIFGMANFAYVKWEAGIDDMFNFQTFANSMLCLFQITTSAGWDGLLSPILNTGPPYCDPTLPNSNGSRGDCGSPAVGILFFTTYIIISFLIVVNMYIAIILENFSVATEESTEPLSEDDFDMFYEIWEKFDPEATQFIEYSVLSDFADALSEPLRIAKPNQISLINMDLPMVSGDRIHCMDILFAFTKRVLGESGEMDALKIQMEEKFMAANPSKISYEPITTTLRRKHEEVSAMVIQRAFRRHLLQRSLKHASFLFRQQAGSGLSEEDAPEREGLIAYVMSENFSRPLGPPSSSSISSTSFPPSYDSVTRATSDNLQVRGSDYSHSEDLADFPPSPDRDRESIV

Structure (SMILES)	hTRPV1-N1E Nav (% inhibition) 25° C., tested at 0.5 mM [1] [%]	hTRPV1-N1E Nav (% inhibition) 47° C., tested at 0.5 mM [1]	IC50 ([1]; class symbols) [µM]	Average Time of Analgesia [2, 4] [h]	IC50 [3] [µM]	inhibition at 10 min, 0.5 mM [3] [%]	inhibition at 10 min, 1.5 mM [3] [%]	hTRPV1-N1E Nav 1 mM (% inhibition) 25° C. [1]	IC50 ([1]; numeric values) [µM]	Average Time of Analgesia [2, 5] [h]	Average Time of Analgesia [2, 6] [h]	Average Time of Analgesia [2, 7] [h]	hTRPV1-N1E Nav 0.1 mM (% inhibition) 25° C. [1] [%]	hTRPV1-N1E Nav 0.1 mM (% inhibition) 47° C. [1]	hTRPV1-N1E Nav 1 mM (% inhibition) 47° C. [1]	analgesic effects in the absence of lidocaine ([2]; absence of lidocaine)	duration of anti-nociception effect ([2]; 100 μL injection volume, 0.5% compound with 2% lidocaine (Table 8))
C[N+]1(C)CCCC[C@H]1CCN(c1ccccc1)C1Cc2ccccc2C1.[I-] [Example 9, (S)-1,1-Dimethyl-2-[2-((indan-2-yl)(phenyl)amino)ethyl]piperidinium iodide]	16	77 (N = 2, 0.5 mM) %	10 to 100	5	647	72.4	97.2										
C[N+]1(C)CCCC[C@@H]1CCN(c1ccccc1)C1Cc2ccccc2C1.[I-] [Example 10, (R)-1,1-Dimethyl-2-[2-((indan-2-yl)(phenyl)amino)ethyl]piperidinium iodide]	24	91 (N = 2, 0.5 mM) %	10 to 100		667	76.1	97.6	6.5 (N = 2) %									
CC[N+]1(CC)CCCC[C@H]1CCN(c1ccccc1)C1Cc2ccccc2C1.[I-] [Example 2, (S)-1,1-diethyl-2-[2-((indan-2-yl)(phenyl)amino)ethyl]piperidinium iodide]	44	89 (N = 2, 0.5 mM) %		10	247	89.2	98.1	50 (N = 2) %	9	0	4	>14					
C[N+]1(C)CCCCC1CN(c1ccccc1)C1Cc2ccccc2C1.[I-] (centres unmarked) [Example 3, 1,1-dimethyl-2-[((indan-2-yl)(phenyl)amino)methyl]piperidinium iodide]				12	190	77.6	99.1	23 (N = 2) %	37	4	9	>15	16	67 (N = 2) %	60 (N = 2) %	analgesic effects of significant duration	
CC[N+]1(CC)CCCCC1CCN(c1ccc(C)cc1)C1Cc2ccccc2C1.[I-] (centres unmarked) [Example 23, 1,1-Diethyl-2-[2-((indan-2-yl)(4-methylphenyl)amino)ethyl]piperidinium iodide]			1 to 10	2				Insoluble					19.7	89.6 (N = 2) %	Insoluble		
C[N+]1(C)CCCCC1CCN(c1ccccc1F)C1Cc2ccccc2C1.[I-] (centres unmarked) [Example 4, 1,1-dimethyl-2-[2-((2-fluorophenyl)(indan-2-yl)amino)ethyl]piperidinium iodide]			10 to 100	1				0 (N = 3) %					0	94.7 (N = 3) %	67.0 (N = 3) %		
CC[N+]1(CC)CCCC[C@@H]1CCN(c1ccccc1)C1Cc2ccccc2C1.[I-] [Example 11, (R)-1,1-Diethyl-2-[2-((indan-2-yl)(phenyl)amino)ethyl]piperidinium iodide]			10 to 100	7	44	97.9	97.8	71 (N = 2) %					0	72%			
CC[N+]1(CC)CCCCC1CCN(c1ccccc1F)C1Cc2ccccc2C1.[I-] (centres unmarked) [Example 16, 1,1-Diethyl-2-[2-((2-fluorophenyl)(indan-2-yl)amino)ethyl]piperidinium iodide]			10 to 100	6				Insoluble					0	92.9 (N = 2) %	Insoluble		up to 6 hours
